Experiments:
Test in all cases: Dip disk (disk-diffusion) assay, disks loaded with 0.05 ml
Format in all cases: cell-based
[1] = system: Escherichia coli UC 51 (EC); settings: Escherichia coli, UC51, 0.05 ml per disk, read-out: Growth Inhibition zone, EC; for zone of inhibition at 0.1 µg/mL: 0.1 mcg/ml
Protocol: (§1) The effectiveness of the subject compounds on bacteria were obtained by performing a dip disk assay. The antibacterial activity of the compounds was determined by the disk-diffusion method. Paper disks (12.7 mm) were loaded with 0.05 ml of drug solution prepared at a concentration of 0.1 mcg/ml; the disks were allowed to air dry. They were then applied to the surface of microorganism-seeded agar assay trays, which contained the bacterial strain Pseudomonas aeruginosa UC 95 (PA), Escherichia coli UC 51 (EC), Klebsiella pneumoniae UC 57 (KP), or Staphylococcus aureus UC 80 (SA). The assay trays were incubated overnight under aerobic condition to allow for the growth of the organisms. Zones of growth inhibition due to the action of the antibiotic were then measured to the nearest millimeter.
(§2) The effectiveness of additional compounds 5-9, (5-7 are Formula IAa compounds and 8 and 9 are Formula IAb compounds) on bacteria were obtained by performing a dip disk assay as described above. The antibacterial activity of the compounds was determined by the disk-diffusion method where the disks were loaded with 0.05 ml of drug solution prepared at a concentration of 1.0 mcg/ml; the disks were allowed to air dry.

[2] = system: Pseudomonas aeruginosa UC 95 (PA); settings: Pseudomonas aeruginosa, UC95, 0.05 ml per disk, read-out: Growth Inhibition zone, PA; for zone of inhibition at 0.1 µg/mL: 0.1 mcg/ml
Protocol: as §1, §2

[3] = system: Staphylococcus aureus UC 80 (SA); settings: Staphylococcus aureus, UC80, 0.05 ml per disk, read-out: Growth Inhibition zone, SA; for zone of inhibition at 0.1 µg/mL: 0.1 mcg/ml
Protocol: as §1, §2

[4] = system: Klebsiella pneumoniae UC 57 (KP); settings: Klebsiella pneumoniae, UC57, 0.05 ml per disk, read-out: Growth Inhibition zone, KP; for zone of inhibition at 0.1 µg/mL: 0.1 mcg/ml
Protocol: as §1, with “Paper disks (12.7 mm) were loaded with 0.05 ml of drug solution prepared at a concentration of 0.1 mcg/ml; the disks were allowed to air dry.” left out, “millimeter. […]” for “millimeter.”

| Structure (SMILES) | zone of inhibition at 0.1 µg/mL [1] [mm] | zone of inhibition at 0.1 µg/mL [2] [mm] | zone of inhibition at 0.1 µg/mL [3] [mm] | zone of inhibition at 0.1 µg/mL [4] [mm] | zone of inhibition at 1 µg/mL ([1]; 1.0 mcg/ml) [mm] | zone of inhibition at 1 µg/mL ([2]; 1.0 mcg/ml) [mm] | zone of inhibition at 1 µg/mL ([3]; 1.0 mcg/ml) [mm] | zone of inhibition at 1 µg/mL ([4]; 1.0 mcg/ml) [mm] |
| --- | --- | --- | --- | --- | --- | --- | --- | --- |
| COC(=O)C=C(C(=O)OC)N1CCN(c2cc3c(cc2F)c(=O)c(C(=O)O)cn3C2CC2)CC1 [Compound 3, 2-[4-(1-Cyclopropyl-3-carboxy-6-fluoro-1,4-dihydro-4-oxo-7-quinolinyl)-1-piperazinyl]2-butenedioic acid, dimethyl ester] | 29 | 36 | 25 | 29 |  |  |  |  |
| COC(=O)C/C=C(\C(=O)OC)N1CCN(c2c(F)cc3c(=O)c(C(=O)O)cn(C4CC4)c3c2F)CC1 [Compound 4, 2-[4-(3-carboxy-1-cyclopropyl-6,8-difluoro-1,4-dihydro-4-oxo-4-oxo-7-quinolinyl)-1-piperazineyl]-2-pentenedioic acid-(E)-1,5-dimethyl ester] | 27 | 33 | 28 | 33 |  |  |  |  |
| COC(=O)/C=C(\C(=O)OC)N1CCN(c2c(F)c(N)c3c(=O)c(C(=O)O)cn(C4CC4)c3c2F)CC1 [Compound 5, 2-[4-(5-amino-3-carboxy-1-cyclopropyl-6,8-difluoro-1,4-dihydro-4-oxo-7-quinolinyl)-1-piperazinyl]-2-butenedioic acid, (E)-1,4-dimethyl ester] |  |  |  |  | 24 | 27 | 27 | 28 |

— US5262417A, “Antibacterial quinolone compounds” (The Upjohn Company, priority 1991, dated 1993)
